Type in all cases: functional
Holding throughout (details): read-out: ED50 (the source's name)

One test deals with HCT-15. As to the kind of experiment: Cytotoxicity against human HCT15 cells.
For another test, the system named is SK-OV-3. Nature of the test: Cytotoxicity against human SKOV3 cells.
The next test has as its system SK-MEL-2. As to the kind of experiment: Cytotoxicity against human SK-MEL-2 cells.
The next test deals with XF498. Nature of the test: Cytotoxicity against human XF498 cells.
A further test deals with A549. Nature of the test: Cytotoxicity against human A549 cells.

Each structure is given as a SMILES string. In brackets after ≈: the same amount, converted by molar mass.

As for `CC(C)=CCC/C(C)=C/CC/C(C)=C/C[C@@]12O[C@@H]1[C@H](O)C(C)=CC2=O`, the EC50 in the test with HCT-15 is 10.1 µg/mL (≈ 29.2 µM); in the test on SK-OV-3, 6.35 µg/mL (≈ 18.4 µM); in the test on SK-MEL-2, 3.86 µg/mL (≈ 11.2 µM); in the test with XF498, 10 µg/mL (≈ 29.1 µM); in the test on A549 it was 7.74 µg/mL (≈ 22.5 µM).
The matching figures for `CC(C)=CCC/C(C)=C\CC/C(C)=C\Cc1cc(O)c(C)cc1O`: 6.11 µg/mL (≈ 18.6 µM), 5.31 µg/mL (≈ 16.2 µM), 4.8 µg/mL (≈ 14.6 µM), 5.94 µg/mL (≈ 18.1 µM) and 4.73 µg/mL (≈ 14.4 µM).
In the case of `CC(C)=CCC/C(C)=C\CC/C(C)=C\CC1=CC(=O)C(C)=CC1=O`, the EC50 in the test with HCT-15 was found to be 42.6 µg/mL (≈ 130 µM); with SK-OV-3 it was 37.3 µg/mL (≈ 114 µM); in the test with SK-MEL-2, 18.4 µg/mL (≈ 56.4 µM); in the test on XF498 it was 38.1 µg/mL (≈ 117 µM); in the test on A549, 25.4 µg/mL (≈ 77.9 µM).
The like results for `COc1cccc2c1C(=O)c1c(O)c3c(c(O)c1C2=O)C[C@@](O)(C(=O)CO)C[C@@H]3O[C@H]1C[C@H](N)[C@H](O)[C@H](C)O1` [DOXORUBICIN] were, in that order, 0.79 µg/mL (≈ 1.45 µM), 0.09 µg/mL (≈ 0.166 µM), 0.04 µg/mL (≈ 0.0736 µM), 0.02 µg/mL (≈ 0.0368 µM) and 0.02 µg/mL (≈ 0.0368 µM).

Values taken from ChEMBL document CHEMBL1147253, “New polyoxygenated farnesylcyclohexenones, deacetoxyyanuthone A and its hydro derivative from the marine-derived fungus Penicillium sp” (2003).
